Data on 19 substances can be found in the OligoGym collection.

HELM strings list units from the 5' end as sugar, base in round brackets, then linkage (d deoxyribose, r ribose, m 2'-O-methyl, p phosphodiester). Strings are as the collection lists them, not checked against the first reports. ss, as = sense and antisense strand; [lna] = locked nucleic acid (LNA); [hna] = hexitol nucleic acid; [s4r] = 4'-thioribose; [fl2r] = 2'-fluoro
Also: test system not given here.

The conditions of the series: siRNA.
As to “RNA1{r(A)p.r(A)p.r(A)p.r(G)p.r(G)p.r(G)p.r(G)p.r(A)p.r(G)p.r(U)p.m(U)p.r(G)p.r(C)p.m(U)p.r(G)p.r(G)p.r(A)p.r(A)p.r(G)p.r(T)p.r(T)}|RNA2{r(C)p.r(U)p.r(U)p.r(C)p.m(C)p.r(A)p.r(G)p.r(C)p.r(A)p.r(A)p.r(C)p.r(U)p.r(C)p.r(C)p.r(C)p.r(C)p.r(U)p.r(U)p.r(U)p.r(T)p.r(T)}$$$RNA1{StrandType:ss}|RNA2{StrandType:as}$”, the target mRNA knockdown worked out at 76%.

“RNA1{[fl2r](A)p.r(A)p.[fl2r](G)p.r(G)p.[fl2r](C)p.r(C)p.[fl2r](A)p.r(A)p.[fl2r](C)p.r(C)p.[fl2r](G)p.r(A)p.[fl2r](U)p.r(A)p.[fl2r](C)p.r(U)p.[fl2r](U)p.r(C)p.[fl2r](U)p.r(T)p.r(T)}|RNA2{r(A)p.r(G)p.r(A)p.r(A)p.r(G)p.[fl2r](U)p.r(A)p.[fl2r](U)p.r(C)p.r(G)p.r(G)p.[fl2r](U)p.[fl2r](U)p.r(G)p.r(G)p.r(C)p.r(C)p.[fl2r](U)p.[fl2r](U)p.r(T)p.r(T)}$$$RNA1{StrandType:ss}|RNA2{StrandType:as}$”: the target mRNA knockdown came to 46%.

As to “RNA1{[lna](T)p.r(C)p.r(C)p.r(A)p.r(G)p.r(A)p.r(A)p.r(C)p.r(A)p.r(A)p.r(A)p.r(G)p.r(G)p.r(A)p.r(A)p.r(A)p.r(C)p.r(G)p.r(G)p.[lna](T)p.[lna](T)}|RNA2{r(C)p.r(C)p.r(G)p.r(U)p.r(U)p.r(U)p.r(C)p.r(C)p.r(U)p.r(U)p.r(U)p.r(G)p.r(U)p.r(U)p.r(C)p.r(U)p.r(G)p.r(G)p.r(A)p.r(T)p.r(T)}$$$RNA1{StrandType:ss}|RNA2{StrandType:as}$”, the target mRNA knockdown was found to be 50%.

Take “RNA1{[lna](T)p.r(G)p.r(A)p.r(G)p.r(A)p.r(G)p.r(A)p.r(A)p.r(A)p.r(G)p.r(C)p.r(A)p.r(C)p.r(A)p.r(G)p.r(A)p.r(A)p.r(A)p.r(A)p.[lna](T)p.[lna](T)}|RNA2{r(U)p.r(U)p.r(U)p.r(U)p.r(C)p.r(U)p.r(G)p.r(U)p.r(G)p.r(C)p.r(U)p.r(U)p.r(U)p.r(C)p.r(U)p.r(C)p.r(U)p.r(C)p.r(A)p.r(T)p.r(T)}$$$RNA1{StrandType:ss}|RNA2{StrandType:as}$”: the target mRNA knockdown is 74%.

“RNA1{r(G)p.r(A)p.r(C)p.r(G)p.[hna](U)p.r(A)p.r(A)p.[hna](A)p.r(C)p.r(G)p.[hna](G)p.r(C)p.r(C)p.[hna](A)p.r(C)p.r(A)p.r(A)p.r(G)p.[hna](U)p.[hna](U)p.d(T)}|RNA2{r(A)p.r(C)p.r(U)p.r(U)p.r(G)p.r(U)p.r(G)p.r(G)p.r(C)p.r(C)p.r(G)p.r(U)p.r(U)p.r(U)p.r(A)p.r(C)p.r(G)p.r(U)p.r(C)p.r(G)p.r(C)}$$$RNA1{StrandType:ss}|RNA2{StrandType:as}$”: the target mRNA knockdown came to 87.4%.

Consider “RNA1{m(U)p.r(U)p.m(A)p.r(A)p.m(A)p.r(G)p.m(G)p.r(G)p.m(C)p.r(G)p.m(A)p.r(G)p.m(A)p.r(A)p.m(G)p.r(A)p.m(C)p.r(C)p.m(G)p.r(T)p.r(T)}|RNA2{r(C)p.r(G)p.r(G)p.r(U)p.r(C)p.r(U)p.r(U)p.r(C)p.r(U)p.r(C)p.r(G)p.r(C)p.r(C)p.r(C)p.r(U)p.r(U)p.r(U)p.r(A)p.r(A)p.r(T)p.r(T)}$$$RNA1{StrandType:ss}|RNA2{StrandType:as}$”, for which the target mRNA knockdown worked out at 67%.

“RNA1{r(A)p.r(G)p.r(C)p.r(C)p.r(U)p.r(C)p.r(C)p.r(A)p.r(A)p.[fl2r](A)p.r(C)p.r(U)p.r(C)p.r(C)p.r(U)p.r(A)p.r(G)p.[fl2r](C)p.r(U)p.r(T)p.r(T)}|RNA2{r(A)p.r(G)p.r(C)p.[fl2r](U)p.r(A)p.r(G)p.r(G)p.r(A)p.r(G)p.r(U)p.r(U)p.r(U)p.r(G)p.r(G)p.r(A)p.r(G)p.r(G)p.r(C)p.r(U)p.r(T)p.r(T)}$$$RNA1{StrandType:ss}|RNA2{StrandType:as}$” showed a target mRNA knockdown of 69%.

Take “RNA1{r(G)p.r(A)p.r(C)p.r(G)p.r(U)p.r(A)p.r(A)p.r(A)p.r(C)p.r(G)p.r(G)p.r(C)p.r(C)p.r(A)p.r(C)p.r(A)p.r(A)p.r(G)p.[hna](U)p.[hna](U)p.r(C)}|RNA2{[fl2r](A)p.m(C)p.[fl2r](U)p.m(U)p.[fl2r](G)p.m(U)p.[fl2r](G)p.m(G)p.[fl2r](C)p.m(C)p.[fl2r](G)p.m(U)p.[fl2r](U)p.m(U)p.[fl2r](A)p.m(C)p.[fl2r](G)p.m(U)p.[fl2r](C)p.m(G)p.[fl2r](C)}$$$RNA1{StrandType:ss}|RNA2{StrandType:as}$”: the target mRNA knockdown came to 45.8%.

As to “RNA1{r(G)p.r(A)p.r(A)p.r(G)p.r(G)p.r(G)p.r(G)p.r(A)p.r(A)p.r(A)p.r(U)p.m(C)p.r(U)p.r(G)p.r(U)p.r(G)p.r(G)p.r(U)p.r(U)p.r(T)p.r(T)}|RNA2{r(A)p.r(A)p.r(C)p.m(C)p.r(A)p.r(C)p.r(A)p.r(G)p.r(A)p.r(U)p.r(U)p.r(U)p.r(C)p.r(C)p.r(C)p.r(C)p.r(U)p.r(U)p.r(C)p.r(T)p.r(T)}$$$RNA1{StrandType:ss}|RNA2{StrandType:as}$”, the target mRNA knockdown is 65%.

“RNA1{r(G)p.m(U)p.r(A)p.r(C)p.r(U)p.r(C)p.m(U)p.r(G)p.r(A)p.m(U)p.r(G)p.r(A)p.r(G)p.r(G)p.r(A)p.r(A)p.r(G)p.r(A)p.r(G)p.r(T)p.r(T)}|RNA2{r(C)p.r(U)p.r(C)p.r(U)p.r(U)p.r(C)p.r(C)p.r(U)p.m(C)p.r(A)p.r(U)p.m(C)p.r(A)p.r(G)p.r(A)p.r(G)p.r(U)p.m(A)p.r(C)p.r(T)p.r(T)}$$$RNA1{StrandType:ss}|RNA2{StrandType:as}$”: the target mRNA knockdown was determined as 68%.

“RNA1{[s4r](C)p.[s4r](G)p.[s4r](U)p.[s4r](A)p.r(C)p.r(G)p.r(C)p.r(G)p.r(G)p.r(A)p.r(A)p.r(U)p.r(A)p.r(C)p.r(U)p.r(U)p.r(C)p.r(G)p.r(A)p.r(T)p.r(T)}|RNA2{r(U)p.r(C)p.r(G)p.r(A)p.r(A)p.r(G)p.r(U)p.r(A)p.r(U)p.r(U)p.r(C)p.r(C)p.r(G)p.r(C)p.r(G)p.r(U)p.r(A)p.r(C)p.r(G)p.r(T)p.r(T)}$$$RNA1{StrandType:ss}|RNA2{StrandType:as}$” displayed a target mRNA knockdown of 94.2%.

Substance “RNA1{r(A)p.r(A)p.r(C)p.r(U)p.r(C)p.r(U)p.r(A)p.r(C)p.[fl2r](U)p.r(G)p.r(U)p.r(G)p.r(G)p.r(A)p.r(G)p.r(U)p.r(C)p.r(G)p.r(G)p.r(T)p.r(T)}|RNA2{r(C)p.r(C)p.r(G)p.r(A)p.r(C)p.r(U)p.r(C)p.[fl2r](C)p.r(A)p.r(C)p.r(A)p.r(G)p.[fl2r](U)p.r(A)p.r(G)p.r(A)p.r(G)p.r(U)p.r(U)p.r(T)p.r(T)}$$$RNA1{StrandType:ss}|RNA2{StrandType:as}$” returned a target mRNA knockdown of 72%.

In turn, “RNA1{r(G)p.r(A)p.r(C)p.r(G)p.r(U)p.r(A)p.r(A)p.r(A)p.r(C)p.r(G)p.r(G)p.r(C)p.r(C)p.r(A)p.r(C)p.r(A)p.r(A)p.r(G)p.r(U)p.r(U)p.r(C)}|RNA2{r(A)p.m(C)p.r(U)p.r(U)p.r(G)p.r(U)p.r(G)p.r(G)p.r(C)p.r(C)p.r(G)p.r(U)p.r(U)p.r(U)p.r(A)p.r(C)p.r(G)p.r(U)p.r(C)p.r(G)p.r(C)}$$$RNA1{StrandType:ss}|RNA2{StrandType:as}$” showed a target mRNA knockdown of 76%.

For “RNA1{r(C)p.r(U)p.r(U)p.r(A)p.r(C)p.r(G)p.r(C)p.r(U)p.r(G)p.r(A)p.r(G)p.r(U)p.r(A)p.r(C)p.r(U)p.r(U)p.r(C)p.r(G)p.r(A)p.r(T)p.r(T)}|RNA2{r(T)p.r(C)p.r(G)p.[lna](A)p.r(A)p.r(G)p.r(U)p.r(A)p.r(C)p.r(U)p.r(C)p.r(A)p.r(G)p.r(C)p.r(G)p.r(U)p.r(A)p.r(A)p.r(G)p.[lna](T)p.[lna](T)}$$$RNA1{StrandType:ss}|RNA2{StrandType:as}$”, the target mRNA knockdown stood at 91%.

“RNA1{r(G)p.r(C)p.r(A)p.r(G)p.r(C)p.r(A)p.r(C)p.r(G)p.r(A)p.r(C)p.r(U)p.r(U)p.r(C)p.r(U)p.r(U)p.r(C)p.r(A)p.r(A)p.r(G)p.r(T)p.r(T)}|RNA2{d(C)p.d(U)p.d(U)p.d(G)p.d(A)p.d(A)p.d(G)p.d(A)p.d(A)p.d(G)p.d(U)p.d(C)p.d(G)p.d(U)p.d(G)p.d(C)p.d(U)p.d(G)p.d(C)p.r(T)p.r(T)}$$$RNA1{StrandType:ss}|RNA2{StrandType:as}$” displayed a target mRNA knockdown of 0%.

For “RNA1{r(A)p.r(G)p.r(C)p.r(C)p.r(U)p.r(C)p.[fl2r](C)p.r(A)p.r(A)p.r(A)p.r(C)p.r(U)p.r(C)p.r(C)p.[fl2r](U)p.r(A)p.r(G)p.r(C)p.r(U)p.r(T)p.r(T)}|RNA2{r(A)p.r(G)p.r(C)p.r(U)p.r(A)p.r(G)p.r(G)p.r(A)p.r(G)p.r(U)p.r(U)p.r(U)p.r(G)p.r(G)p.r(A)p.r(G)p.r(G)p.r(C)p.r(U)p.r(T)p.r(T)}$$$RNA1{StrandType:ss}|RNA2{StrandType:as}$”, the target mRNA knockdown came out at 32%.

“RNA1{r(C)p.r(U)p.r(U)p.r(A)p.r(C)p.r(G)p.r(C)p.r(U)p.r(G)p.r(A)p.r(G)p.r(U)p.r(A)p.r(C)p.r(U)p.r(U)p.r(C)p.r(G)p.r(A)p.r(T)p.r(T)}|RNA2{r(U)p.r(C)p.r(G)p.r(A)p.r(A)p.r(G)p.r(U)p.r(A)p.r(C)p.r(U)p.r(C)p.r(A)p.r(G)p.r(C)p.r(G)p.[lna](U)p.r(A)p.r(A)p.r(G)p.r(T)p.r(T)}$$$RNA1{StrandType:ss}|RNA2{StrandType:as}$” displayed a target mRNA knockdown of 81%.

For the substance “RNA1{r(G)p.r(A)p.r(C)p.r(G)p.[hna](U)p.r(A)p.r(A)p.[hna](A)p.r(C)p.r(G)p.[hna](G)p.r(C)p.r(C)p.[hna](A)p.r(C)p.r(A)p.r(A)p.r(G)p.r(U)p.[hna](U)p.d(T)}|RNA2{r(A)p.[hna](C)p.r(U)p.r(U)p.r(G)p.r(U)p.r(G)p.r(G)p.r(C)p.r(C)p.r(G)p.r(U)p.r(U)p.r(U)p.r(A)p.r(C)p.r(G)p.[hna](U)p.[hna](C)p.[hna](G)p.d(T)}$$$RNA1{StrandType:ss}|RNA2{StrandType:as}$”, the target mRNA knockdown came to 11.9%.

The substance “RNA1{r(G)p.r(A)p.r(G)p.[fl2r](U)p.r(A)p.r(U)p.r(U)p.r(U)p.r(C)p.r(C)p.r(G)p.r(C)p.r(U)p.r(G)p.r(G)p.r(A)p.r(A)p.r(C)p.r(U)p.r(T)p.r(T)}|RNA2{r(A)p.r(G)p.r(U)p.r(U)p.r(C)p.r(C)p.r(A)p.r(G)p.r(C)p.r(G)p.r(G)p.r(A)p.r(A)p.r(A)p.[fl2r](U)p.r(A)p.r(C)p.r(U)p.r(C)p.r(T)p.r(T)}$$$RNA1{StrandType:ss}|RNA2{StrandType:as}$” returned a target mRNA knockdown of 75%.
